IC50 data for 44 compounds are collected here from US11279681B2, “3-alkyl bicyclic [4,5,0] hydroxamic acids as HDAC inhibitors” (Valo Health, Inc., priority 2015, dated 2022).

The target in this experiment is T1, HDAC6 (Homo sapiens, UniProt Q9UBN7).
T1 sequence (Q9UBN7 1-1215): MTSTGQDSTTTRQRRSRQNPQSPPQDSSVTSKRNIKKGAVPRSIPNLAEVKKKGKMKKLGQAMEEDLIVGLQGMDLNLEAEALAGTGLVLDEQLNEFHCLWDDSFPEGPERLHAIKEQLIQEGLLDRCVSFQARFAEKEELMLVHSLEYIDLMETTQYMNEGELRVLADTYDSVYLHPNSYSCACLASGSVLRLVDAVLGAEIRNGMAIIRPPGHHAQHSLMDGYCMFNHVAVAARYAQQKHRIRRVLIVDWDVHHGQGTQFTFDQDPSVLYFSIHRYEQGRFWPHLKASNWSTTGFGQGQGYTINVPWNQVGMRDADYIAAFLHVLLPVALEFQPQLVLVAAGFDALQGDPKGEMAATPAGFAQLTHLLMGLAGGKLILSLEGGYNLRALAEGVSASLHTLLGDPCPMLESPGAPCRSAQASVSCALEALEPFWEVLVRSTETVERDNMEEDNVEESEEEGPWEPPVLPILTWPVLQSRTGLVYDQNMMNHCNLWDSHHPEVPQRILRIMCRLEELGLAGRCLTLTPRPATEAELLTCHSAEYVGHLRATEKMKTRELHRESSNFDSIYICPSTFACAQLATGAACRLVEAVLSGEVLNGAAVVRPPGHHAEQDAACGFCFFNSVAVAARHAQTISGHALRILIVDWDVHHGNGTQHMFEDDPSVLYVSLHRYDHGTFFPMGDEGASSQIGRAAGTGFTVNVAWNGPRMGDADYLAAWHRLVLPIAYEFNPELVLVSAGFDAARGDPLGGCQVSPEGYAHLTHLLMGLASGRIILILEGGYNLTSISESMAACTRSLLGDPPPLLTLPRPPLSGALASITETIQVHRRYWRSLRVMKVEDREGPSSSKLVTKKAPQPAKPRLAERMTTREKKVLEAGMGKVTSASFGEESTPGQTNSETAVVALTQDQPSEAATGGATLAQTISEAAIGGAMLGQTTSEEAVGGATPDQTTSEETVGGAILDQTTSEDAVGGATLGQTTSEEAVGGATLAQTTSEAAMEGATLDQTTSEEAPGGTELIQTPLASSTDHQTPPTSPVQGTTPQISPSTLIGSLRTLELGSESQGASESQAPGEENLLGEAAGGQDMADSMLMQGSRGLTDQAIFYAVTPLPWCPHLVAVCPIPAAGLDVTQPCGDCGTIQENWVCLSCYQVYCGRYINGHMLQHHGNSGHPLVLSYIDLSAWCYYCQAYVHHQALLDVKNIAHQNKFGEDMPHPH
Put plainly: In vitro histone deacetylase assay: enzymatic HDAC6 electrophoretic mobility shift assay. The format is biochemical. The conditions noted are these: full length human recombinant HDAC6, 1 nM enzyme, 2 μM peptide substrate RHKK(Ac)-NH2, 25° C.; read-out: Inhibitory Concentration (IC50) Values for Representative Compounds against HDAC6, Activity Range. On the procedure:
The enzymatic HDAC6 assay was performed using electrophoretic mobility shift assay. […] The enzymatic reactions were assembled in 384 well plates in a total volume of 25 μL in a reaction buffer composing: 100 mM HEPES, pH7.5, 25 mM KCl, 0.1% bovine serum albumin, 0.01% Triton X-100, 1% DMSO (from compounds) 2 μM of the fluorescently labeled peptide substrate and enzyme. The enzyme was added at a final concentration of 1 nM. The peptide substrate RHKK(Ac)-NH2 was used. The compounds were tested at 12 concentrations spaced by 3× dilution intervals. Negative control samples (0%-inhibition in the absence of inhibitor) and positive control samples (100%-inhibition) were assembled in replicates of four in each assay plate. The reactions were incubated at 25° C. and quenched by the addition of 45 μL of termination buffer (100 mM HEPES, pH 7.5, 0.01% Triton X-100, 0.05% SDS).
The terminated assay plates were analyzed on LabChip® 3000 microfluidic electrophoresis instrument (Perkin Elmer/Caliper Life Sciences). The fluorescence intensity of the electrophoretically separated de-acetylated product and substrate peptide was measured. Activity in each sample was determined as the product to sum ratio (PSR): P/(S+P), where P is the peak height of the product peptide and S is the peak height of the substrate peptide. Percent inhibition (Pinh) is determined using the following equation:
Pinh=(PSR0%−PSRinh)/(PSR0%−PSR100%)*100, where PSRinh is the product sum ratio in the presence of inhibitor, PSR0% is the average product sum ration in the absence of inhibitor and PSR100% is the average product sum ratio in 100%-inhibition control samples. The IC50 values of inhibitors were determined by fitting the %-inhibition curves with 4 parameter dose-response model using XLfit 4 software.

As to `COc1ccc(OC(=O)N2CCOc3cc(C(=O)NO)ccc3C2)cc1`, the IC50 is at most 100 nM. Consider `COc1ccc(CN2CCOc3cc(C(=O)NO)ccc3C2)cc1`, for which the IC50 fell in the range of 100 to 500 nM. Consider `C[C@H]1COc2cc(C(=O)NO)ccc2CN1CC1CC1` [(S)-4-(cyclopropylmethyl)-N-hydroxy-3-methyl-2,3,4,5-tetrahydrobenzo[f][1,4]oxazepine-8-carboxamide], for which the IC50 was at most 100 nM. In the case of `COc1ccc(NC(=O)N2Cc3ccc(C(=O)NO)cc3O[C@H](C)C2)cc1` it was 100 to 500 nM. In the case of `C[C@H]1COc2cc(C(=O)NO)ccc2CN1S(C)(=O)=O` [(S)-N-hydroxy-3-methyl-4-(methylsulfonyl)-2,3,4,5-tetrahydrobenzo[f][1,4]oxazepine-8-carboxamide] it was at most 100 nM; in that of `COc1ccc(CCN2CCOc3cc(C(=O)NO)ccc3C2=O)cc1`, 100 to 500 nM; in that of `O=C1CN(Cc2cc(F)ccc2F)Cc2cc(C(=O)NO)ccc2N1`, 100 to 500 nM. To `COC[C@@H]1COc2cc(C(=O)NO)ccc2CN1c1ccccc1` [(R)-N-hydroxy-3-(methoxymethyl)-4-phenyl-2,3,4,5-tetrahydrobenzo[f][1,4]oxazepine-8-carboxamide] belongs 100 to 500 nM; to `O=C1CN(CC2CCOC2)Cc2cc(C(=O)NO)ccc2N1` (centres unmarked), over 500 nM; to `CC(C)c1ccc(CN2CC(=O)Nc3ccc(C(=O)NO)cc3C2)nc1`, 100 to 500 nM.

As for `CC(C)c1ccc(CN2CC(=O)Nc3ccc(C(=O)NO)cc3C2)cc1`, the IC50 was at most 100 nM. On to `C[C@H]1COc2cc(C(=O)NO)ccc2CN1C(=O)N(C)c1ccccc1` [(S)-N8-hydroxy-N4,3-dimethyl-N4-phenyl-2,3-dihydrobenzo[f][1,4]oxazepine-4,8(5H)-dicarboxamide], for which the IC50 lay within 100 to 500 nM. On to `COCCn1c(N2CCOc3ccc(C(=O)NO)cc3C2)nc2ccccc21`, for which the IC50 is 100 to 500 nM. To `C[C@H]1COc2cc(C(=O)NO)ccc2CN1CC1COC1` [(S)-N-hydroxy-3-methyl-4-(oxetan-3-ylmethyl)-2,3,4,5-tetrahydrobenzo[f][1,4]oxazepine-8-carboxamide] belongs at most 100 nM; to `O=C(NO)c1ccc2c(c1)OCCN(C(=O)N1Cc3ccccc3C1)C2` [N-hydroxy-4-(isoindoline-2-carbonyl)-2,3,4,5-tetrahydrobenzo[f][1,4]oxazepine-8-carboxamide], at most 100 nM. In the case of `CC(C)[C@H]1COc2cc(C(=O)NO)ccc2CN1c1cccnc1` [(S)-N-hydroxy-3-isopropyl-4-(pyridin-3-yl)-2,3,4,5-tetrahydrobenzo[f][1,4]oxazepine-8-carboxamide] it was at most 100 nM. To `COc1ccc(NC(=O)N2CCOc3cc(C(=O)NO)cnc3C2)cc1` belongs at most 100 nM; to `COc1ccc(S(=O)(=O)N2Cc3ccc(C(=O)NO)cc3OC[C@H]2C)cc1`, over 500 nM. In the case of `O=C(NO)c1ccc2c(c1)OC[C@H](Cc1ccccc1)N(C(=O)N1CCOCC1)C2` [(S)-3-benzyl-N-hydroxy-4-(morpholine-4-carbonyl)-2,3,4,5-tetrahydrobenzo[f][1,4]oxazepine-8-carboxamide], the IC50 was at most 100 nM. As for `COc1ccc(CN2CCOc3nc(C(=O)NO)ccc3C2)cc1`, the IC50 was over 500 nM. Consider `COC[C@H]1COc2cc(C(=O)NO)ccc2CN1c1ccccc1C` [(S)-N-hydroxy-3-(methoxymethyl)-4-(o-tolyl)-2,3,4,5-tetrahydrobenzo[f][1,4]oxazepine-8-carboxamide], for which the IC50 was at most 100 nM. With `O=C(NO)c1ccc2c(c1)OCCNC2` [N-hydroxy-2,3,4,5-tetrahydrobenzo[f][1,4]oxazepine-8-carboxamide], the IC50 is 100 to 500 nM. To `COCCn1c(CN2CCOc3ccc(C(=O)NO)cc3C2)nc2ccccc21` belongs over 500 nM. Regarding `C[C@H]1COc2cc(C(=O)NO)ccc2CN1C(=O)N1CCOCC1` [(S)-N-hydroxy-3-methyl-4-(morpholine-4-carbonyl)-2,3,4,5-tetrahydrobenzo[f][1,4]oxazepine-8-carboxamide], the IC50 is at most 100 nM. To `CN(C(=O)N1CCOc2cc(C(=O)NO)ccc2C1)c1ccccc1` belongs over 500 nM; to `C[C@H]1COc2cc(C(=O)NO)ccc2CN1CCN1CCOCC1` [(S)-N-hydroxy-3-methyl-4-(2-morpholinoethyl)-2,3,4,5-tetrahydrobenzo[f][1,4]oxazepine-8-carboxamide], 100 to 500 nM. For the compound `COc1ccc(CN2Cc3ccc(C(=O)NO)cc3O[C@H](C)C2)cc1`, the IC50 lay in the range of 100 to 500 nM. Regarding `C[C@@H]1COc2cc(C(=O)NO)ccc2CN1C` [(R)—N-hydroxy-3,4-dimethyl-2,3,4,5-tetrahydrobenzo[f][1,4]oxazepine-8-carboxamide], the IC50 was at most 100 nM.

Turning to `O=C(NO)c1ccc2c(c1)OCCN(c1nc3ccccc3n1CC1CCOCC1)C2`, the IC50 lay within 100 to 500 nM. To `O=C1CN(Cc2cccc3ccccc23)Cc2cc(C(=O)NO)ccc2N1` belongs at most 100 nM.

In the case of `COc1ccc(NC(=O)N2CCOc3cc(C(=O)NO)ccc3C2)cc1`, the IC50 fell in the range of 100 to 500 nM.

As to `C[C@H]1COc2cc(C(=O)NO)ccc2CN1CCCN1CCOCC1` [(S)-N-hydroxy-3-methyl-4-(3-morpholinopropyl)-2,3,4,5-tetrahydrobenzo[f][1,4]oxazepine-8-carboxamide], the IC50 is 100 to 500 nM. In the case of `COc1ccc(CN2Cc3ccc(C(=O)NO)cc3OCC2(C)C)cc1` it was 100 to 500 nM. On to `O=C(NO)c1ccc2c(c1)OCCN(c1ccc(Cl)c(Cl)c1)C2`, for which the IC50 was in the range of 100 to 500 nM. In the case of `COC[C@H]1COc2cc(C(=O)NO)ccc2CN1Cc1ccc(OC)cc1` [(S)-N-hydroxy-4-(4-methoxybenzyl)-3-(methoxymethyl)-2,3,4,5-tetrahydrobenzo[f][1,4]oxazepine-8-carboxamide] it was at most 100 nM. With `COCCN1Cc2ccc(C(=O)NO)cc2OC[C@@H]1C` [(S)-N-hydroxy-4-(2-methoxyethyl)-3-methyl-2,3,4,5-tetrahydrobenzo[f][1,4]oxazepine-8-carboxamide], the IC50 is at most 100 nM. As to `O=C1CN(Cc2nc3ccccc3[nH]2)Cc2ccc(C(=O)NO)cc2N1`, the IC50 was 100 to 500 nM. To `O=C1CN(Cc2cccc(OC(F)(F)F)c2)Cc2cc(C(=O)NO)ccc2N1` belongs 100 to 500 nM. As to `O=C1CN(C(=O)N2CCCCC2)Cc2cc(C(=O)NO)ccc2N1` [N-hydroxy-2-oxo-4-(piperidine-1-carbonyl)-2,3,4,5-tetrahydro-1H-benzo[e][1,4]diazepine-7-carboxamide], the IC50 was 100 to 500 nM. As to `COc1ccc(CN2CCOc3ccc(C(=O)NO)cc3C2C)cc1` (centres unmarked), the IC50 was over 500 nM. In the case of `CC(C)[C@@H]1COc2cc(C(=O)NO)ccc2CN1` it was at most 100 nM.

As for `COC[C@H]1CN(C(=O)Nc2ccc(OC)cc2)Cc2ccc(C(=O)NO)cc2O1` [(R)-N8-hydroxy-2-(methoxymethyl)-N4-(4-methoxyphenyl)-2,3-dihydrobenzo[f][1,4]oxazepine-4,8(5H)-dicarboxamide], the IC50 was in the range of 100 to 500 nM. Take `O=C(NO)c1ccc2c(c1)CN(Cc1nc3ccccc3[nH]1)CCO2`: the IC50 was over 500 nM.

As to `C[C@@H]1CN(c2ccccc2)Cc2ccc(C(=O)NO)cc2O1`, the IC50 lay in the range of 100 to 500 nM.
